According to patent US20250051337A1 (priority 2021, published 2025):
Like-named read-outs stand apart in the source and are kept apart here.

Legend:
Caco-2 cell = test: Caco-2 permeability; type: in vitro ADME; details: Caco-2, classification
Experimental: (§1) The Caco-2 cell permeability was determined for selected compounds 6, 11, 16, and 23. Permeability is classified as follows: high >10, medium, 1-10, and low ≤1. The efflux ratio is calculated by Papp (B→A/A→B). A compound is a potential transporter substrate if efflux ratio >2.0. Atenolol, Propranolol, and Taxol were used as internal standards. Data is represented as an average of a single experiment preformed in duplicate. Apparent permeability=(Papp).

Caco-2 permeability = type: in vitro ADME; details: human; for Papp B→A: Caco-2; for efflux ratio: Caco-2, Papp (B→A/A→B)
Experimental: as §1

LRRK2 = LRRK2 (Homo sapiens (Human), UniProt Q5S007); test: NanoBRET intracellular kinase assay, LRRK2; type: cell-based; details: transfected HEK293 cells, 2 h
Experimental: Full-length STK3, STK4, and LRRK2 kinase was cloned in-frame with a C-terminal NanoLuc-fusion (Promega: Madison, WI, USA) and the plasmid was transfected into HEK293T cells using FuGENE HD (Promega, E2312). After 20 h, transfected cells were mixed with inhibitors and 50 nM NanoBRET Kinase Tracer K10 (Promega) and reseeded at a density of 2× 10^5 cells/mL in Opti-Minimal Essential Medium (MEM) without phenol red (Life Technologies; Carlsbad, CA, USA) in 384-well plates (Greiner 781-207; Kremsmunster, Austria). After 2 h at 37° C. in a 5% CO2 atmosphere, NanoBRET NanoGlo Substrate+Extra-cellular NanoLuc Inhibitor (Promega, N2540) was added, and filtered luminescence was measured on a PHERAstar plate reader (BMG Labtech; Ortenberg, Germany) equipped with a lumi-nescence filter pair (450 nm BP filter (donor) and 610 nm LP filter (acceptor)).
To confirm cellular potency for compounds described herein, the […] were used to detect engagement of STK3 and STK4 in live cells using the NanoBRET™ intracellular kinase assay, marking the first report of a NanoBRET assay for STK3 and STK4. This assay measured the apparent affinity of test compounds by competitive displacement of the NanoBRET™ tracer, reversibly bound to a NanoLuc® luciferase-kinase fusion in cells. To evaluate potential off-target activity of the inhibitors, the inhibition of LRRK2 in live cells by the STK3/4 inhibitors compounds described herein were measured. Cultured HEK293 cells were either transfected with NanoLuc®-STK3 fusion vector, NanoLuc®-STK4 fusion, or with NanoLuc®-LRRK2 vector for 24 h. A 50 nM tracer and these compounds were added to cells and incubated for 2 h. These compounds tested in the assays decreased the NanoBRET™ signal for both STK3 and STK4 at varying potencies and confirming cellular target engagement of STK3/4.

[1] = In vivo plasma and liver concentrations, 20 mg/kg intraperitoneal; details: female, C57BL/6J, mouse, ip
Experimental: All animal procedures were approved by the Sanford Burnham Prebys Medical Discovery Institute Institutional Animal Care and Use Committee and were performed according to the NIH guidelines for the Care and Use of Laboratory Animals. Adult female C57BL/6J mice were purchased from Jackson Laboratories and housed with free access to food and water on a 12 h light/dark cycle. Compounds were formulated in 5% DMSO, 10% Tween-80, and 85% H2O and injected intraperitoneally at 10 or 20 mg/kg. Blood samples were collected retro-orbitally at the indicated times and plasma was prepared by centrifugation. Livers were collected post mortem at the indicated times.
For quantification of compound, plasma samples were extracted with acetonitrile: water 4:1 with 0.1% formic acid containing indomethacin as an internal standard. Samples were centrifuged and the supernatants were diluted with acetonitrile: water and analyzed by LC-MS/MS using a Shimadzu Nexera X2 High-performance liquid chromatography (HPLC) (Shimadzu Scientific Instruments: Kyoto, Japan) coupled to an AB Sciex 6500 QTRAP (AB Sciex LLC: Toronto, Canada).
Adult female C57BL/6 mice (n=3/group) were intraperitoneally injected with vehicle or test compound (20 mg/kg), and blood samples and livers were collected at 30 min and 1 h post-injection, respectively. Plasma concentrations of all 13 compounds were >1.4 μM at 30 min after injection, and 10 compounds had liver concentrations >1.0 μM at 1 h after injection, as measured by LC-MS/MS, with particularly high plasma concentrations obtained with compounds 11 (15.9 μM), 16 (11.6 μM) and 105 (8.7 μM) (Table 5). To evaluate target engagement in vivo, the total and phosphorylated MOB1 levels in livers collected at 1 h post-injection was examined.
Tween 80 and water and were administered to mice by intraperitoneal injection. Blood samples and livers were collected at 30 min and 1 h post-dose, respectively. Plasma concentrations and relative pMOB1 levels were determined by LC-MS/MS and western blot analysis, respectively. (n=3).

[2] = test system: phosphorylated MOB1 (Thr35) in HEK293 cells; test: Western blot analysis of p-MOB1 in HEK293 cells; type: cell-based; details: 10 μM, 4 h, then H2O2 50 μM 2 h, vs DMSO
Experimental: Cells were harvested by pipetting, pelleted by centrifugation at 1400 rpm for 4 min, and lysed in RIPA buffer for 10 min at room temperature. The lysates were centrifuged at 12,000×g at room temperature (RT) for 10 min and the supernatants were recovered. Protein concentrations in the supernatants were determined using a BCA assay (Pierce/Thermo Scientific). Proteins were separated on NovexTM WedgeWellTM 4-20% Tris-Glycine Gels (Invitrogen; Carlsbad, CA, USA) and transferred to polyvinylidene difluoride (Trans-Blot® TurboTM Transfer Pack) membranes. […] Danvers. MA. USA). Blots were rinsed three times with TBST and then incubated in 5% nonfat milk containing horseradish peroxidase (HRP)-conjugated mouse anti-rabbit IgG secondary Ab (Cell Signaling Technology) for 1 h at RT. Blots were washed three times with TBST, developed using Pierce® ECL Western Blotting reagent, and imaged and analyzed using with ImageJ software. Quantitative data are expressed as the level of phosphorylated MOB1 normalized to total MOB1. To confirm that the cellular mechanism of action of our inhibitors was through inhibition of Hippo pathway signaling. […] Inhibition of STK3/4 in vitro and in vivo can produce decreased phosphorylation of the Hippo pathway adapter protein MOB1 at […].

[3] = mice, 20 mg/kg intraperitoneal, 30 min post-dose, read-out: Plasma concentration

LRRK2, sequence (Q5S007 whole entry, species assumed, the tested form may be a part): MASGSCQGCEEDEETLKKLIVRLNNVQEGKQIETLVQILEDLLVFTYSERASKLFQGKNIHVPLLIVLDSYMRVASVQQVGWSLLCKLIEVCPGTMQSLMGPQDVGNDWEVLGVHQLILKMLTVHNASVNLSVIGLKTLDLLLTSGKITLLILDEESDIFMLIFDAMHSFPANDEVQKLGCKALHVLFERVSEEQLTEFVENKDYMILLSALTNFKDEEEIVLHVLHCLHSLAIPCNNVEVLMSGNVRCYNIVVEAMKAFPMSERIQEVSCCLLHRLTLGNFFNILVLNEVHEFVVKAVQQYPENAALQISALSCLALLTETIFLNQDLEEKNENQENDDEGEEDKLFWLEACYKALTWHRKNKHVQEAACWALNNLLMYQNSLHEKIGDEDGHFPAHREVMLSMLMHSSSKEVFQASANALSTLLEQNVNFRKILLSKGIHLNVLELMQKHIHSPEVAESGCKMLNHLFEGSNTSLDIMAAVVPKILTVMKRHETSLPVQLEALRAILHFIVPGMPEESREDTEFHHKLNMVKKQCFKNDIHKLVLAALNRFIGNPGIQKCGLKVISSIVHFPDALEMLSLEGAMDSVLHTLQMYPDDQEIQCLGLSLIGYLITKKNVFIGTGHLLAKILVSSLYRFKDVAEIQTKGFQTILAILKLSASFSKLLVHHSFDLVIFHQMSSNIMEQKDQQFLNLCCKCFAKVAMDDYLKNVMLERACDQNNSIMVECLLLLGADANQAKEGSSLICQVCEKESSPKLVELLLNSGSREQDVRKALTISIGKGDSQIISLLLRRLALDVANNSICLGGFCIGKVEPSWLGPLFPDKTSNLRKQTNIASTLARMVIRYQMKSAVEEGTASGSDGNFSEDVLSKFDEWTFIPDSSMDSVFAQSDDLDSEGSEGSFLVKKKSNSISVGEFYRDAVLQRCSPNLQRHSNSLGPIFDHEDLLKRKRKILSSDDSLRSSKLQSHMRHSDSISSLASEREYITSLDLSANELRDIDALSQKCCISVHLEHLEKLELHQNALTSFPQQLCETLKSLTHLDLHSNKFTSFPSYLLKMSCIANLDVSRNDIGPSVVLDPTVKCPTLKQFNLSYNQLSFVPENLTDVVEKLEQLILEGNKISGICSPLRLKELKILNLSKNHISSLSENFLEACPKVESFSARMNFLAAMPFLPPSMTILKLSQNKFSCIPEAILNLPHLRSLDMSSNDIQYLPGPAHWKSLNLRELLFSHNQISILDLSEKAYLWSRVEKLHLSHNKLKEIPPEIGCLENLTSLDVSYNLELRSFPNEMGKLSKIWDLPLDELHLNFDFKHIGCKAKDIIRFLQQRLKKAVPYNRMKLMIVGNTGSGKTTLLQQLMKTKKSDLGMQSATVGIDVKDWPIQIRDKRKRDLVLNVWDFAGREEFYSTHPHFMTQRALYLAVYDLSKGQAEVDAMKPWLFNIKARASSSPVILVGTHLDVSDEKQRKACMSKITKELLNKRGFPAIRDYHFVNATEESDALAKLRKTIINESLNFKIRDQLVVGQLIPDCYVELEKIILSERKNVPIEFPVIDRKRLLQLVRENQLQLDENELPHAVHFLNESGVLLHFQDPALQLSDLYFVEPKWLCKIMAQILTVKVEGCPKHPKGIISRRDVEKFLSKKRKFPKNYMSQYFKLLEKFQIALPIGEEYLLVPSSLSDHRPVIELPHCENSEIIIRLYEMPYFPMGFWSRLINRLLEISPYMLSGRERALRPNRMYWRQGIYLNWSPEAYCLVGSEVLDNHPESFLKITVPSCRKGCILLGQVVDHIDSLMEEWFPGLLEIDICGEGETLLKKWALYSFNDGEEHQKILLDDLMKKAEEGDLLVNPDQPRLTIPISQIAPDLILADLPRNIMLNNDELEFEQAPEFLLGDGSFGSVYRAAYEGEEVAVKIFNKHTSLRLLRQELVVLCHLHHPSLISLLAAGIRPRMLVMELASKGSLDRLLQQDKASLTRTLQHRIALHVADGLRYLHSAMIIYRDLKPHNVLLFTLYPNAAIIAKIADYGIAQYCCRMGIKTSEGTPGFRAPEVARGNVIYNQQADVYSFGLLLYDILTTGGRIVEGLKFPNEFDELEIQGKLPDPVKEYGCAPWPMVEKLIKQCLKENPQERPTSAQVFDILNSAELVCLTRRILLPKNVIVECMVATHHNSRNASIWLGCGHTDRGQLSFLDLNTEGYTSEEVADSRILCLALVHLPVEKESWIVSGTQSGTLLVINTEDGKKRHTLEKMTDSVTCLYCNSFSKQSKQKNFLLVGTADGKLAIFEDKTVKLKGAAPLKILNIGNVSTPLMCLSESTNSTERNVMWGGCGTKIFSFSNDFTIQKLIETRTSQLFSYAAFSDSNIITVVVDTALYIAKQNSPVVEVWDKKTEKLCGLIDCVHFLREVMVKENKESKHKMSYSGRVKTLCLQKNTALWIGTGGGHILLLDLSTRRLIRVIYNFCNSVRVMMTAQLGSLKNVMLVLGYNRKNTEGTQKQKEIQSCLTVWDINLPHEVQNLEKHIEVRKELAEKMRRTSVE

Row | SMILES | Permeability (Caco-2 cell) | Papp B→A (Caco-2 permeability) | IC50 (LRRK2) | concentration at 30 min ([1]; 20 mg/kg) | concentration at 1 h ([1]; 20 mg/kg) | concentration at 30 min [1, 3] | efflux ratio (Caco-2 permeability) | Papp (Caco-2 permeability; Caco-2, classification) | LRRK2: IC50 (LRRK2) | relative expression level of phosphorylated MOB1 [2]
1 | Clc1cccc(-c2c[nH]c3ncnc(N4CCOCC4)c23)c1 [Compound 6, 4-(5-(3-Chlorophenyl)-7H-pyrrolo[2,3-d]pyrimidin-4-yl)morpholine] | High | 35.7 ×10⁻⁶ cm/s | ≤ 1 µM | 6.9 µM | 15.3 µM | – | – | – | – | –
2 | NC(=O)c1cccc(-c2c[nH]c3ncnc(N4CCOCC4)c23)c1 [Compound 11, 3-(4-Morpholino-7H-pyrrolo[2,3-d]pyrimidin-5-yl)benzamide] | Medium to High | 136 ×10⁻⁶ cm/s | ≥ 2 µM | – | 23.2 µM | 15.9 µM | – | – | – | –
3 | OC1CCN(c2ncnc3[nH]cc(-c4cccc(Cl)c4)c23)CC1 [Compound 16, 1-(5-(3-Chlorophenyl)-7H-pyrrolo[2,3-d]pyrimidin-4-yl)piperidin-4-ol] | High | 294 ×10⁻⁶ cm/s | – | – | 5.9 µM | 11.6 µM | 1.3 | > 10 ×10⁻⁶ cm/s | B (B: IC50 is >2000 nM and <1000 nM) | significant reduction
4 | Clc1cccc(-c2c[nH]c3nccc(N4CCOCC4)c23)c1 [Compound 23, 4-(3-(3-chlorophenyl)-1H-pyrrolo[2,3-b]pyridin-4-yl)morpholine] | High | 7 ×10⁻⁶ cm/s | ≤ 1 µM | 7.1 µM | 16.6 µM | – | 1.6 | – | – | significant reduction
5 | CC(=O)NC1CCN(c2ncnc3[nH]cc(-c4cccc(Cl)c4)c23)CC1 [Compound 105, N-(1-(5-(3-chlorophenyl)-7H-pyrrolo[2,3-d]pyrimidin-4-yl)piperidin-4-yl)acetamide] | – | – | – | 8.7 µM | 4.6 µM | – | – | – | B (B: IC50 is >2000 nM and <1000 nM) | significant reduction
